Activity calls are given as the source filed them. The rule behind the calls is not given here.
Legend:
[1] = biological target: T1, Glycine receptor subunit alpha-2 (Rattus norvegicus) (UniProt P22771); assay: Effect on rat alpha2 homomeric glycine receptor expressed in CHO cells assessed as shortened single receptor burst opening in response to glycine-pulse at 10 uM by outside patch clamp technique; format: cell-based
T1 sequence (whole entry): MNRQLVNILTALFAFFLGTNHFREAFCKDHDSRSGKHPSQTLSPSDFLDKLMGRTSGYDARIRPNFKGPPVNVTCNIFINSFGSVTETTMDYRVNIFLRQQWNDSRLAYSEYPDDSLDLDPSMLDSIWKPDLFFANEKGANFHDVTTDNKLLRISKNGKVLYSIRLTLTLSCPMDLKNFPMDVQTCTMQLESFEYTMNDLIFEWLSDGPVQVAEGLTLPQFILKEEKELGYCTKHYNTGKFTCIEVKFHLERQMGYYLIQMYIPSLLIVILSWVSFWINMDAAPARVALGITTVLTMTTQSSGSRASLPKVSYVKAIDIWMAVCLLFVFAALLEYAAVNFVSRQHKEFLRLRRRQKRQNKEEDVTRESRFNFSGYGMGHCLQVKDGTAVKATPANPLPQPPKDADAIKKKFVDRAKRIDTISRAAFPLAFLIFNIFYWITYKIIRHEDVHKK

[2] = biological target: T1, Glycine receptor subunit alpha-2 (Rattus norvegicus); assay: Effect on rat alpha2 homomeric glycine receptor expressed in CHO cells assessed as shortened deactivation phase of glycine-evoked response at 10 uM administered before glycine challenge by outside patch clamp technique; format: cell-based
[3] = biological target: T1, Glycine receptor subunit alpha-2 (Rattus norvegicus); assay: Effect on rat alpha2 homomeric glycine receptor expressed in CHO cells assessed as decrease in channel mean open time at 10 uM by outside patch clamp technique relative to control; format: cell-based
[4] = biological target: T1, Glycine receptor subunit alpha-2 (Rattus norvegicus); assay: Inhibition of rat alpha2 homomeric glycine receptor expressed in CHO cells assessed as inhibition of deactivation time constant by outside patch clamp technique; format: cell-based
[5] = biological target: T1, Glycine receptor subunit alpha-2 (Rattus norvegicus); assay: Effect on rat alpha2 homomeric glycine receptor expressed in CHO cells assessed as decrease in activation phase of glycine response at 10 uM by outside patch clamp technique; format: cell-based
[6] = biological target: T1, Glycine receptor subunit alpha-2 (Rattus norvegicus); assay: Inhibition of rat alpha2 homomeric glycine receptor expressed in CHO cells assessed as inhibition of 30 mM glycine-elicited current at 10 uM by outside patch clamp technique
[7] = biological target: T1, Glycine receptor subunit alpha-2 (Rattus norvegicus); assay: Inhibition of rat alpha2 homomeric glycine receptor expressed in CHO cells assessed as inhibition of 300 uM glycine-elicited current at 3 uM by outside patch clamp technique; format: cell-based
[8] = biological target: T1, Glycine receptor subunit alpha-2 (Rattus norvegicus); assay: (§1) Inhibition of rat alpha2 homomeric glycine receptor expressed in CHO cells assessed as inhibition of 300 uM glycine-elicited current at 3 uM at +50 mV voltage by outside patch clamp technique; format: cell-based
[9] = biological target: T1, Glycine receptor subunit alpha-2 (Rattus norvegicus); assay: Effect on rat alpha2 homomeric glycine receptor expressed in CHO cells assessed as change in rising time constant of glycine response at 10 uM by outside patch clamp technique; format: cell-based
[10] = biological target: T2, Glycine receptor subunit alpha-2 (Rattus norvegicus, UniProt P22771); assay: Inhibition of rat alpha2 homomeric glycine receptor expressed in CHO cells assessed as inhibition of 300 uM glycine-elicited current by outside patch clamp technique; format: cell-based
T2 sequence (P22771 whole entry): T1 sequence (whole entry)

[11] = biological target: T1, Glycine receptor subunit alpha-2 (Rattus norvegicus); assay: Effect on rat alpha2 homomeric glycine receptor expressed in CHO cells assessed as glycine-evoked response at 10 uM administered before glycine challenge by outside patch clamp technique; format: cell-based
[12] = biological target: T1, Glycine receptor subunit alpha-2 (Rattus norvegicus); assay: as §1; format: cell-based; remark: listed apart in the source
[13] = biological target: T1, Glycine receptor subunit alpha-2 (Rattus norvegicus); assay: Effect on rat alpha2 homomeric glycine receptor expressed in CHO cells assessed as decrease in glycine-evoked recovery time constant at 10 uM by outside patch clamp technique; format: cell-based
[14] = biological target: T1, Glycine receptor subunit alpha-2 (Rattus norvegicus); assay: Inhibition of rat alpha2 homomeric glycine receptor expressed in CHO cells assessed as inhibition of 300 uM glycine-elicited current at 10 uM by outside patch clamp technique; format: cell-based
[15] = biological target: T1, Glycine receptor subunit alpha-2 (Rattus norvegicus); assay: Effect on rat alpha2 homomeric glycine receptor expressed in CHO cells assessed as decrease in channel mean open time by outside patch clamp technique relative to control; format: cell-based
[16] = biological target: T1, Glycine receptor subunit alpha-2 (Rattus norvegicus); assay: Effect on rat alpha2 homomeric glycine receptor expressed in CHO cells assessed as change in relative area of rising time constant of glycine response at 10 uM by outside patch clamp technique; format: cell-based
[17] = biological target: T1, Glycine receptor subunit alpha-2 (Rattus norvegicus); assay: Effect on rat alpha2 homomeric glycine receptor expressed in CHO cells assessed as change in rising time constant of glycine response at 300 uM by outside patch clamp technique; format: cell-based
[18] = biological target: T1, Glycine receptor subunit alpha-2 (Rattus norvegicus); assay: Effect on rat alpha2 homomeric glycine receptor expressed in CHO cells assessed as shortened single receptor burst opening in response to glycine-pulse at 30 uM by outside patch clamp technique; format: cell-based
[19] = biological target: T1, Glycine receptor subunit alpha-2 (Rattus norvegicus); assay: Inhibition of rat alpha2 homomeric glycine receptor expressed in CHO cells assessed as inhibition of 30 mM glycine-elicited current at 300 uM by outside patch clamp technique
[20] = biological target: T1, Glycine receptor subunit alpha-2 (Rattus norvegicus); assay: Inhibition of rat alpha2 homomeric glycine receptor expressed in CHO cells assessed as inhibition of 300 uM glycine-elicited current at 100 uM at +50 mV voltage by outside patch clamp technique; format: cell-based
[21] = biological target: T1, Glycine receptor subunit alpha-2 (Rattus norvegicus); assay: Effect on rat alpha2 homomeric glycine receptor expressed in CHO cells assessed as shortened deactivation phase of glycine-evoked response at 100 uM administered before glycine challenge by outside patch clamp technique; format: cell-based
[22] = biological target: T1, Glycine receptor subunit alpha-2 (Rattus norvegicus); assay: Effect on rat alpha2 homomeric glycine receptor expressed in CHO cells assessed as glycine-evoked response at 100 uM administered before glycine challenge by outside patch clamp technique; format: cell-based
[23] = biological target: T1, Glycine receptor subunit alpha-2 (Rattus norvegicus); assay: Effect on rat alpha2 homomeric glycine receptor expressed in CHO cells assessed as decrease in activation phase of glycine response at 30 uM by outside patch clamp technique; format: cell-based
[24] = biological target: T1, Glycine receptor subunit alpha-2 (Rattus norvegicus); assay: Effect on rat alpha2 homomeric glycine receptor expressed in CHO cells assessed as decrease in channel mean open time at 30 uM by outside patch clamp technique relative to control; format: cell-based
[25] = biological target: T1, Glycine receptor subunit alpha-2 (Rattus norvegicus); assay: Inhibition of rat alpha2 homomeric glycine receptor expressed in CHO cells assessed as inhibition of 300 uM glycine-elicited current at 300 uM by outside patch clamp technique
[26] = biological target: T1, Glycine receptor subunit alpha-2 (Rattus norvegicus); assay: Effect on rat alpha2 homomeric glycine receptor expressed in CHO cells assessed as change in relative area of rising time constant of glycine response at 300 uM by outside patch clamp technique; format: cell-based
[27] = biological target: T1, Glycine receptor subunit alpha-2 (Rattus norvegicus); assay: Effect on rat alpha2 homomeric glycine receptor expressed in CHO cells assessed as flickering of channel in response to glycine-pulse at 30 uM by outside patch clamp technique; format: cell-based
[28] = biological target: T1, Glycine receptor subunit alpha-2 (Rattus norvegicus); assay: Inhibition of rat alpha2 homomeric glycine receptor expressed in CHO cells assessed as inhibition of 300 uM glycine-elicited current at 100 uM at -50 mV voltage by outside patch clamp technique; format: cell-based

With `C=C(C)[C@@H]1[C@H]2OC(=O)[C@@H]1[C@]1(O)C[C@H]3O[C@]34C(=O)O[C@H]2[C@]14C` [PICROTOXININ] the Activity [1] was “Active”, the Activity [2] was “Active” and the Activity [3] was 9.3 ms. For the same compound, the Activity [4] was “Dose-dependent effect”, the Activity [5] was “Active” and the inhibition [6] was 47.4%. The inhibition [7] was 50%, the Activity [8] was “Active” and the Activity [9] was 81%. For the same compound, the IC50 [10] was 2.4 µM, the Activity [11] was “Active” and the Activity [12] was “Active”. For the same compound, the Activity [13] was 17.6 ms, the inhibition [14] was 78.9% and the Activity [15] was “Dose-dependent effect”. The Activity [16] was 19%.

For `CC(C)(O)[C@@H]1[C@H]2OC(=O)[C@@H]1[C@]1(O)C[C@H]3O[C@]34C(=O)O[C@H]2[C@]14C` [PICROTIN], the Activity [17] was 91.1%, the Activity [18] was “Active” and the inhibition [19] was 36.3%. For the same compound, the Activity [20] was “Active”, the Activity [21] was “Active” and the Activity [22] was “Active”. For the same compound, the Activity [4] was “Dose-dependent effect”, the Activity [23] was “Active” and the Activity [24] was 2.9 ms. It also gave an inhibition [25] of 63.7%, an inhibition [7] of 3.4% and an IC50 [10] of 117 µM. For the same compound, the Activity [26] was 8.9%, the Activity [27] was “Active” and the Activity [15] was “Dose-dependent effect”. For the same compound, the Activity [28] was “Active”.

Reference: ChEMBL document CHEMBL1156457, “Mechanisms for picrotoxinin and picrotin blocks of alpha2 homomeric glycine receptors” (J Biol Chem, 2007)
